Results taken from patent US7317033B2, “Substituted thiophenes: compositions, processes of making, and uses in disease treatment and diagnosis” (Sanofi-Aventis Deutschland GmbH, priority 2002, dated 2008).
Counter-ions that a name gives are not always drawn.

target: T1, rNHE3 (Rattus norvegicus, UniProt P26433); assay: recovery of intracellular pH (pHi) after acidification, BCECF fluorescence, rNHE3; type: cell-based; details: pH recovery recorded for three minutes
T1 construct: host or cells: cells, not specified
T1 sequence (P26433 29-831): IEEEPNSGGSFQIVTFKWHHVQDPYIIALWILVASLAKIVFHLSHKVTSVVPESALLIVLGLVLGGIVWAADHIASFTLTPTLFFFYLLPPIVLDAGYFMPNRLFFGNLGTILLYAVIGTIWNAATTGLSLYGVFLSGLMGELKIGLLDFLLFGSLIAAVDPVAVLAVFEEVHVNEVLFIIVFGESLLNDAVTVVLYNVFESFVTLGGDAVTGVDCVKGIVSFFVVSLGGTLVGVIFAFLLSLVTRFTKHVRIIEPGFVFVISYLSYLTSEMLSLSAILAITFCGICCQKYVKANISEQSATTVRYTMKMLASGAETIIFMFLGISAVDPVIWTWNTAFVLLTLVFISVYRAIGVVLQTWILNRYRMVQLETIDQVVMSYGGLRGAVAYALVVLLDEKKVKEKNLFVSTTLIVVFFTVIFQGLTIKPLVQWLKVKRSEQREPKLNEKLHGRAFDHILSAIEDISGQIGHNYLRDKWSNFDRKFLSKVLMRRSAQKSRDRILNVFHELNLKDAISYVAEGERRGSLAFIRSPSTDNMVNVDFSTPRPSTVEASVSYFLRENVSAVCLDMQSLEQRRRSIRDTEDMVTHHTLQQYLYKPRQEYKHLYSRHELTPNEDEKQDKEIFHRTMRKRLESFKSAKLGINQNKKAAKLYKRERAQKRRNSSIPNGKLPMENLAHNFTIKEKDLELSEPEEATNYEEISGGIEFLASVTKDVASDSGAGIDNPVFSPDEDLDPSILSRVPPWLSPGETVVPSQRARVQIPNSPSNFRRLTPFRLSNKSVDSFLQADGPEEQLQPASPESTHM
Procedure: In this test, the recovery of the intracellular pH (pHi) after an acidification, which starts when the NHE is capable of functioning, even under bicarbonate-free conditions, was determined. For this purpose, the pHi was determined using the pH-sensitive fluorescent dye BCECF (Calbiochem, the precursor BCECF-AM is employed). The cells were initially loaded with BCECF. The BCECF fluorescence was determined in a “ratio fluorescence spectrometer” (Photon Technology International, South Brunswick, N.J., USA) with excitation wavelengths of 505 and 440 nm and an emission wavelength of 535 nm, and was converted into the pHi using calibration plots. The cells were incubated in NH4Cl buffer (pH 7.4) (NH4Cl buffer: 115 mM NaCl, 20 mM NH4Cl, 5 mM KCl, 1 mM CaCl2, 1 mM MgSO4, 20 mM Hepes, 5 mM glucose, 1 mg/ml BSA; a pH of 7.4 is established with 1 M NaOH) even during the BCECF loading. […] The subsequent rate of pH recovery was recorded in the case of NHE1 for two minutes, in the case of NHE2 for five minutes and in the case of NHE3 for three minutes. […] Recovery of the intracellular pH at each tested concentration of a substance was expressed as a percentage of the maximum recovery. Using the Sigma-Plot program, the IC50 value of the substance in question was calculated for the individual NHE subtypes using the percentages for pH recovery.

In order of falling IC50:
1. Cc1csc(Cl)c1NC1=N[C@@H]2CCCC[C@H]2N1 [Example 16, trans-R,R-2-chloro-3N-(3a,4,5,6,7,7a-hexahydro-1H-2-benzimidazolyl)-4-methyl-3-thienylamine hydrochloride]  270 nM
2. Cc1csc(Cl)c1Nc1nc2ccccc2[nH]1 [Example 12, 2-Chloro-3N-(2-benzimidazolyl)-4-methyl-3-thienylamine hydrochloride]  120 nM

target: T2, hNHE3 (Homo sapiens, UniProt P48764); assay: recovery of intracellular pH (pHi) after acidification, BCECF fluorescence, hNHE3; type: cell-based; details: pH recovery recorded for three minutes
T2 construct: host or cells: cells, not specified
T2 sequence (P48764 26-834): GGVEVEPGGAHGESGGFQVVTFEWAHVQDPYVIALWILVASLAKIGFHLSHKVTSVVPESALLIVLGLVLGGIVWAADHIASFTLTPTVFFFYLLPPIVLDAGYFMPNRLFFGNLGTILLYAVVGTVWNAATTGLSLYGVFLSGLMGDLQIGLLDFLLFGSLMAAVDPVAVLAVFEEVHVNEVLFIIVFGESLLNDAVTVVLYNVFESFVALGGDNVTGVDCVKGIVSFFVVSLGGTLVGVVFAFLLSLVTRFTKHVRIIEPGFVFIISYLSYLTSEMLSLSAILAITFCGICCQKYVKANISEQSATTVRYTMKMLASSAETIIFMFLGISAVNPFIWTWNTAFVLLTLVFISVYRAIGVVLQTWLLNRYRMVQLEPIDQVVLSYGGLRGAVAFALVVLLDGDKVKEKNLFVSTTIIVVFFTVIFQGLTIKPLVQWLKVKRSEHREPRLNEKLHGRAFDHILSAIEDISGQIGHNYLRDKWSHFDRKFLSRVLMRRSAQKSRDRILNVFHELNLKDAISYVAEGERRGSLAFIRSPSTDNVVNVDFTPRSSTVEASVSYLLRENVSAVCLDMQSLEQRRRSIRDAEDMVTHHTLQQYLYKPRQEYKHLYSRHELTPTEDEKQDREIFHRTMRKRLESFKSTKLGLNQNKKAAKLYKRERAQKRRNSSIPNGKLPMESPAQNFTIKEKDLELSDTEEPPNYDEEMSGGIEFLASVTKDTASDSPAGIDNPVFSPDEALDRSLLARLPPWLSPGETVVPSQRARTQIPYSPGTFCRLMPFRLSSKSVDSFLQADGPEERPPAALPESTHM
Procedure: In this test, the recovery of the intracellular pH (pHi) after an acidification, which starts when the NHE is capable of functioning, even under bicarbonate-free conditions, was determined. For this purpose, the pHi was determined using the pH-sensitive fluorescent dye BCECF (Calbiochem, the precursor BCECF-AM is employed). The cells were initially loaded with BCECF. The BCECF fluorescence was determined in a “ratio fluorescence spectrometer” (Photon Technology International, South Brunswick, N.J., USA) with excitation wavelengths of 505 and 440 nm and an emission wavelength of 535 nm, and was converted into the pHi using calibration plots. The cells were incubated in NH4Cl buffer (pH 7.4) (NH4Cl buffer: 115 mM NaCl, 20 mM NH4Cl, 5 mM KCl, 1 mM CaCl2, 1 mM MgSO4, 20 mM Hepes, 5 mM glucose, 1 mg/ml BSA; a pH of 7.4 is established with 1 M NaOH) even during the BCECF loading. The intracellular acidification was induced by addition of 975 μl of an NH4Cl-free buffer (see below) to 25 μl aliquots of the cells incubated in NH4Cl buffer. The subsequent rate of pH recovery was recorded in the case of NHE1 for two minutes, in the case of NHE2 for five minutes and in the case of NHE3 for three minutes. To calculate the inhibitory power of the tested substances, the cells were initially investigated in buffers in which complete or absolutely no pH recovery took place. For complete pH recovery (100%), the cells were incubated in Na^+-containing buffer (133.8 mM NaCl, 4.7 mM KCl, 1.25 mM CaCl2, 1.25 mM MgCl2, 0.97 mM Na2HPO4, 0.23 mM NaH2PO4, 5 mM Hepes, 5 mM glucose, a pH of 7.0 is established with 1 M NaOH). To determine the 0% value, the cells were incubated in an Na^+-free buffer (133.8 mM choline chloride, 4.7 mM KCl, 1.25 mM CaCl2, 1.25 mM MgCl2, 0.97 mM K2HPO4, 0.23 mM KH2PO4, 5 mM Hepes, 5 mM glucose, a pH of 7.0 is established with 1 M KOH). The substances to be tested were made up in the Na^+-containing buffer. Recovery of the intracellular pH at each tested concentration of a substance was expressed as a percentage of the maximum recovery. Using the Sigma-Plot program, the IC50 value of the substance in question was calculated for the individual NHE subtypes using the percentages for pH recovery.

In order of rising IC50:
1. Cc1csc(Br)c1Nc1nc2ccccc2[nH]1 [Example 18, 2-Bromo-3N-(2-benzimidazolyl)-4-methyl-3-thienylamine hydrochloride]  120 nM
2. Clc1csc(Br)c1Nc1nc2ccccc2[nH]1 [Example 53, 2-Bromo-4-chloro-3N-(2-benzimidazolylamino)thiophene hydrochloride]  140 nM
3. Clc1cscc1NC1=N[C@H]2CCCC[C@@H]2N1 [Example 60, trans-(3aS,7aS)-4-Chloro-3N-(3a,4,5,6,7,7a-hexahydro-1H-2-benzimidazolyl)-3-thienylamine Hydrochloride]  190 nM
4. Fc1ccc2[nH]c(Nc3c(Cl)csc3Cl)nc2c1 [Example 54, (2,4-Dichloro-thiophen-3-yl)-(5-fluoro-1H-benzoimidazol-2-yl)-amine-hydrochloride]  220 nM
5. Fc1cc2nc(Nc3c(Cl)csc3Cl)[nH]c2cc1F [Example 56, (2,4-Dichloro-thiophen-3-yl)-(5,6-difluoro-1H-benzoimidazol-2-yl)-amine-hydrochloride]  220 nM
6. Clc1csc(Cl)c1NC1=N[C@@H]2CCCC[C@H]2N1 [Example 63, trans-R,R-2,4-Dichloro-3N-(3a,4,5,6,7,7a-hexahydro-1H-2-benzimidazolyl)-3-thienylamine Hydrochloride]  540 nM
7. Cc1csc(Br)c1NC1=N[C@@H]2CCCC[C@H]2N1 [Example 19, trans-R,R-2-Bromo-3N-(3a,4,5,6,7,7a-hexahydro-1H-2-benz-imidazolyl)-4-methyl-3-thienylamine hydrochloride]  560 nM
8. Cc1csc(Cl)c1Nc1nc2cc(F)ccc2[nH]1 [Example 2, 2-Chloro-3N-(5-fluoro-2-benzimidazolyl)-4-methyl-3-thienylamine hydrochloride]  620 nM
9. Cc1csc(Cl)c1Nc1nc2c(O)cccc2[nH]1 [Example 38, 2-Chloro-3N-(4-hydroxy-2-benzimidazolylamino)-4-methylthiophene hydrochloride]  840 nM
10. Cc1csc(Cl)c1N(C)c1nc2ccccc2[nH]1 [Example 44, (1H-Benzimidazol-2-yl)-(2-chloro-4-methylthiophen-3-yl)methylamine]  1590 nM

tested on: not given; assay: not given; details: not given

First: Cc1csc(Cl)c1Nc1nc2cc(F)ccc2[nH]1 (as salt: hydrochloride) [Example 2, 2-Chloro-3N-(5-fluoro-2-benzimidazolyl)-4-methyl-3-thienylamine hydrochloride]
Second: Cc1csc(Cl)c1NC1=N[C@@H]2CCCC[C@H]2N1 (as salt: hydrochloride) [Example 16, trans-R,R-2-chloro-3N-(3a,4,5,6,7,7a-hexahydro-1H-2-benzimidazolyl)-4-methyl-3-thienylamine hydrochloride]
The melting point of the first is lower: 200 to 202 °C for the first, 260 to 262 °C for the second.
